Patent US12448414B2, “Antimicrobial peptide (AMP) for controlling Pseudomonas syringae pv. actinidiae (PSA) and preparation method and use thereof” (Anhui Agricultural University, priority 2023, dated 2025)
“Also recorded” adds a separate entry of the source. Where two headings read alike, the source gives them in different places. No end group written: not given here.

Assays:
PSA genomic DNA = experiment: DNA gel retardation; assay type: binding, Pseudomonas syringae pv. actinidiae; conditions: 200 ng DNA, 15.63 ng to 1,000 ng AMP, 28° C., 30 min
Protocol: A PSA genomic DNA (200 ng) was incubated with different amounts of the AMP (15.63 ng to 1,000 ng) synthesized in Example 1 at 28° C. for 30 min. At the same time, sterile water was set as a control. After electrophoresis, DNA gel retardation was observed under UV illumination using a Bio-Rad Universal Hood II Gel Doc XR system (Hercules, USA).

[1] = system: DNA replication (dnaA and dnaB) and DNA repair (recA and recN) genes; experiment: RT-qPCR of DNA replication and repair genes; assay type: cell-based, Pseudomonas syringae pv. actinidiae; conditions: 1 MIC, 28° C., 2 h
Protocol: PSA cells (10^7 CFU/mL) were incubated with 1 MIC of the AMP synthesized in Example 1 at 28° C. for 2 h. At the same time, sterile water was set as a control. A total RNA was extracted, and cDNA was synthesized using PrimeScript RT Master Mix (Takara, Dalian, China). The expression of DNA replication (dnaA and dnaB) and DNA repair (recA and recN) genes were detected by reverse transcription-quantitative PCR (RT-qPCR). The RT-qPCR was conducted with a mixed system including 10 μL of Masser Mix (Tsinke, Beijing, China), 0.8 μL of each primer (0.5 μM), 0.4 μL (200 ng) of the cDNA, and 8 μL of water. The reaction was conducted by: at 50° C. for 2 min; initial denaturation at 95° C. for 2 min; and at 95° C. for 15 sec, at 55° C. for 30 sec, and at 72° C. for 30 sec, conducting 40 cycles. 16S rRNA was used as a reference gene. A relative expression level of genes was calculated by a 2-AACT method.

PSA cells [2] = experiment: Membrane depolarization with DiSC3(5); assay type: cell-based, Pseudomonas syringae pv. actinidiae; conditions: 1 MIC, 28° C., 30 min
Protocol: Membrane depolarization was measured using a membrane potential-sensitive cyano dye 3,3′-dipropylthiadicarbocyanine iodide (DiSC3(5)) according to a method of Juba et al. (2015, Helical cationic antimicrobial peptide length and its impact on membrane disruption). PSA cells (10^7 CFU/mL) were suspended in a PBS containing 50 μg/mL of the DiSC3(5) and added to a black 96-well microplate. The microplate was incubated in a SpectraMax i3 microplate reader (Molecular Devices, San Jose, USA), and monitored until fluorescence leveled off. 1 MIC of the AMP synthesized in Example 1 was added and incubated at 28° C. for 30 min; while the PBS was used as a control. The fluorescence intensity of each sample was measured at excitation/emission wavelengths of 622 nm/670 nm, respectively.

PSA cell membrane = experiment: Membrane permeabilization (OD260 of filtrates); assay type: cell-based, Pseudomonas syringae pv. actinidiae; conditions: 1 MIC, 120 min, relative to Triton X-100; increased from 2.61%
Protocol: Membrane permeabilization was determined according to a method of Dang et al. (2020, Antimicrobial peptides from the edible insect Musca domestica and their preservation effect on chilled pork). PSA cells (10^7 CFU/mL) in a logarithmic growth phase were incubated with 1 MIC of the AMP synthesized in Example 1 at 28° C. for 120 min. The resulting cultures were filtered through a 0.22 μm membrane and OD260 value of the filtrates were determined. 10 mM of a phosphate-buffered saline (PBS) and Triton X-100 were used as negative and positive controls, respectively. The membrane permeabilization was calculated according to the following formula: Permeabilization (%)=(OD260 AMP/OD260 Triton)×100%.

PSA cells [3] = experiment: Calcium ion leakage of PSA cells; assay type: cell-based, Pseudomonas syringae pv. actinidiae; conditions: after 120 min of treatment; increased from 8.70 μM
[4] = system: intracellular esterase of PSA; experiment: Intracellular esterase activity (FDA fluorescence); assay type: cell-based, Pseudomonas syringae pv. actinidiae; conditions: 1 MIC, at 120 min
Protocol: The intracellular esterase activity of PSA was measured with fluorescein diacetate (FDA). PSA cells (10^7 CFU/mL) were added to a black 96-well microplate preloaded with 1 MIC of the AMP synthesized in Example 1. The cells in each well were mixed with 10 mM of the FDA and incubated at 28° C. for 10 min. Fluorescence intensity was measured at excitation wavelengths of 480 nm/530 nm using the SpectraMax i3 microplate reader (Molecular Devices, San Jose, USA), respectively.

PSA cells [5] = experiment: SEM and TEM observation of PSA cells; assay type: cell-based, Pseudomonas syringae pv. actinidiae; conditions: 1 MIC, 2 h, 28° C.
Protocol: Scanning electron microscopy (SEM) and Transmission electron microscopy (TEM) were used to observe the morphological and intracellular changes of the PSA cells treated with the AMP synthesized in Example 1. PSA cells (10^7 CFU/mL) were incubated with the AMP (1 MIC) for 2 h at 28° C.; while sterile water was used as a control. For SEM, cell samples were prepared according to a protocol of Juba et al. (2015, Helical cationic antimicrobial peptide length and its impact on membrane disruption) and observed under a Hitachi SU8100 SEM (Tokyo, Japan). For TEM, cell samples were prepared according to a method of Nguyen et al. (2021, Comparison of two transmission electron microscopy methods to visualize drug-induced alterations of gram-negative bacterial morphology) and observed under a Hitachi HT-7700 TEM (Tokyo, Japan).

PSA [6] = experiment: Drug resistance of PSA to the AMP (repeated subculture, MIC change); assay type: cell-based, Pseudomonas syringae pv. actinidiae; conditions: repeated treatment at 0.75, 1 and 1.25 MIC, 14 d
Protocol: Microbial resistance was determined according to a method of Steczko et al. (2009, Microbial inactivation properties of a new antimicrobial/antithrombotic catheter lock solution (citrate/methylene blue/parabens)). 10^5 CFU/mL of a PSA bacteria solution was treated with AMPs at final concentrations of 0.75 MIC, 1 MIC, and 1.25 MIC. After 24 h of incubation, the MIC was determined by microdilution assay. Subculture and MIC determination were conducted by the same method every day for a total of 14 d. The drug resistance of PSA was evaluated by observing changes of the MIC.

[7] = system: defense genes (PR1 and PR-10); experiment: RT-qPCR of defense genes in kiwifruit leaves; assay type: in vivo; conditions: PSA-inoculated kiwifruit leaves, 48 h
Protocol: The expression of defense genes (PRI and PR-10) in kiwifruit leaves was detected by RT-qPCR. The leaves were collected 48 h after AMP inoculation with PSA, and a total RNA was extracted from three leaf discs for each replicate, and cDNA was synthesized. The RT-qPCR was conducted using the method in Example 4. Actin was used as a reference gene. […] A relative expression level of genes was calculated by a 2-AACT method.

PSA [8] = assay type: cell-based, Pseudomonas syringae pv. actinidiae; conditions: 3 h
Protocol: The EC50 was determined according to a method of Gupta et al. (2015, Short, synthetic cationic peptides have antibacterial activity against Mycobacterium smegmatis by forming pores in membrane and synergizing with antibiotics). The PSA cells (10^5 CFU/mL) in a logarithmic growth phase were added to a 96-well microplate that was preloaded with different concentrations of the AMP synthesized in Example 1 (0.39 μg/mL to 12.5 μg/mL) or AS (62.5 μg/mL to 2,000 μg/mL), and then incubated at 28° C. for 3 h. A serially diluted mixture was spread on the LB agar plate, incubated for 48 h, and the colonies were counted. The EC50 was calculated by plotting percent killing as a function of the lg of AMP concentrations.

PSA [9] = experiment: MIC determination by broth microdilution; assay type: cell-based, Pseudomonas syringae pv. actinidiae; conditions: PSA 10^5 CFU/mL, LB, 28° C., 24 h, OD600
Protocol: The MIC was determined by a broth microdilution method (Mishra et al., 2017, Individual and combined effects of engineered peptides and antibiotics on Pseudomonas aeruginosa biofilms). PSA cells in a logarithmic growth phase were diluted to 10^5 colony forming units (CFU)/mL with an LB liquid medium (including 10 g/L peptone, 5 g/L yeast extract powder, and 10 g/L NaCl), and added into a 96-well microplate that was preloaded with different concentrations of the AMP synthesized in Example 1 (1.56 μg/mL to 200 μg/mL) or agricultural streptomycin (AS) (125 μg/mL to 4,000 μg/mL). After incubation at 28° C. for 24 h, an absorbance at 600 nm (OD600) of each sample was measured using a Multiskan FC microplate reader (Thermo Fisher Scientific, Waltham, USA); while sterile water was used as a control.

PSA cells [10] = experiment: ROS level (DCFH-DA fluorescence); assay type: cell-based, Pseudomonas syringae pv. actinidiae
Protocol: The reactive oxygen species (ROS) level of PSA treated with the AMP synthesized in Example 1 was evaluated using a ROS detection kit (LabLead, Beijing, China). PSA cells (10^7 CFU/mL) were incubated with different concentrations of the AMPs (0.5 MIC to 2 MICs) at 28° C. for 2 h. At the same time, sterile water was set as a control. The cells were resuspended in PBS and then incubated with 10 μM of 2′,7′-dichlorodihydrofluorescein diacetate (DCFH-DA) for 30 min at 28° C. Fluorescence intensity was measured at excitation/emission wavelengths of 485 nm/525 nm using a SpectraMax i3 microplate reader (Molecular Devices, San Jose, USA).

PSA [11] = experiment: Control effect and bacterial load on kiwifruit leaves inoculated with PSA; assay type: in vivo, Pseudomonas syringae pv. actinidiae on kiwifruit; conditions: 1 MIC; for disease control effect: kiwifruit leaves inoculated with PSA, lesion area vs control; for bacterial load in leaves: kiwifruit leaves, 96 h
Protocol: The method of Bai et al. (2022, Application of phage therapy against red-fleshed kiwifruit canker) was selected to evaluate a control effect of the AMP synthesized in Example 1 on kiwifruit leaves inoculated with PSA. The leaves were injured with a syringe needle and covered with a filter paper (ϕ=1 cm) containing 50 μL of PSA (10^8 CFU/mL). After 2 h, 1 MIC of AMP or AS was added; while the PBS was used as a control. The kiwifruit plants were cultured for 96 h at 25±1° C., 70±5% relative humidity (RH), and a photoperiod of 16 h: 8 h. The lesion area and the number of colonies were counted every 48 h, and the disease control effect (%) was calculated using the following formula: Control effect (%)=(1−Lesion areatreatment/Lesion areacontrol)×100%
Bacterial load in leaves was determined according to a colony count method of Barrett-Manako et al. (2021, Real-time PCR and droplet digital PCR are accurate and reliable methods to quantify Pseudomonas syringae pv. actinidiae biovar 3 in kiwifruit infected plantlets). Leaves were collected, washed with sterile water, and homogenized with PBS. A homogenate was inoculated into a King's B solid medium (supplemented with nitrofurantoin at 12.5 μg/mL and cephalexin at 40 μg/mL). After incubation at 28° C. for 48 h, the colonies were counted to calculate lg CFU/cm^2. Colonies were confirmed by PCR using specific primers for the 16S-23SrDNA-ITS sequence of PSA (Table 1), and sequenced.

PSA [12] = assay type: cell-based, Pseudomonas syringae pv. actinidiae
Protocol: The samples in the wells with a concentration of greater than 1 MIC during the MIC determination in step 1 were spread on an LB agar plate (including 10 g/L peptone, 5 g/L yeast extract powder, 10 g/L NaCl, and 15 g/L agar), and the colonies were counted after incubation at 28° C. for 48 h.

## WWKLLRKL-NH2 [AMP, Trp-Trp-Lys-Leu-Leu-Arg-Lys-Leu-NH2]
PSA genomic DNA
  binding with PSA genomic DNA (gel retardation): bind to the genomic DNA of PSA and retard the migration of DNA in a concentration-dependent manner
[1]
  reduction of dnaA expression level vs control: 80.64%
  reduction of dnaB expression level vs control: 57.51%
  reduction of recA expression level vs control: 35.28%
  reduction of recN expression level vs control: 39.23%
PSA cells [2]
  membrane depolarization (DiSC3(5) fluorescence): significantly induced an increase in DiSC3 (5) fluorescence
PSA cell membrane
  permeabilization of the PSA cell membrane: 11.44%
PSA cells [3]
  calcium ion leakage: 60.87 µM
[4]
  esterase (FDA) fluorescence intensity relative to control: 0.34 times that of the control
PSA cells [5]
  cell morphology and intracellular changes (SEM/TEM): notable alterations in cell morphology
PSA [6]
  drug resistance of PSA (change of MIC): no drug resistance of PSA to AMP is observed; also recorded: no change was found in the MIC
[7]
  expression level of PR 1 relative to control: 1.38 times that of the control group
  expression level of PR-10 relative to control: 1.74 times that of the control
PSA [8]
  EC50: 1.67 mg/L
PSA [9]
  MIC: 3.13 mg/L
PSA cells [10]; 0.5 MIC to 2 MICs
  ROS fluorescence intensity, dose dependence: increased in a dose-dependent manner
PSA cells [10]; 2 MIC, 28° C., 2 h
  ROS fluorescence intensity relative to control: 4.22 times that of the control
PSA [11]
  disease control effect: 70.53%
  bacterial load in leaves: 2.95 lg CFU/cm^2
PSA [12]; 48 h
  MBC: 6.25 µg/mL

## agricultural streptomycin [AS, reference compound]
PSA [9]
  MIC: 500 mg/L
PSA [11]
  disease control effect: 55.80%
  bacterial load in leaves: 4.48 lg CFU/cm^2
PSA [12]; LB agar plate, 28° C., 48 h colony count
  MBC: 1,000 μg/mL
